Data reported in US5484780A, “Angiotensin II antagonists” (Eli Lilly and Company, priority 1994, dated 1996).

Legend:
[1] = molecular target: angiotensin II receptor (adrenal membranes); experiment: Adrenal Glomerulosa Test System: binding of I^125-angiotensin II to adrenal membranes; conditions: displacement of 0.1 nM I^125-angiotensin II, rat adrenal membranes, 90 minutes, room temperature; KI by Cheng Prusoff equation; read-out: Adrenal Glomulosa (KI)
Procedure: (§1) As previously discussed, the compounds of Formula I are potent effective antagonists of angiotensin II. The ability of representative compounds of Formula I to block angiotensin II receptor binding was determined using the adrenal glomerulosa assay. The ability to antagonize angiotensin-induced vasoconstriction was evaluated in the rabbit aorta test system.
Binding of I^125 -angiotensin II to adrenal membranes was routinely carried out in 96-well filtration plates. Adrenal membranes were prepared from the capsular portion (glomerulosal layer attached) of rat adrenal glands by differential centrifugation. Briefly, capsules were homogenized in a solution containing sucrose, 250 mM; MgCl2, 1 mM; and tris, 5 mM at pH 7.5 and 4° C. using a polytron at setting 5 for 20 seconds. The homogenate was stirred, gently, for 15 minutes at 4° C. and then centrifuged 10 minutes, at 1000×g, 4° C. The supernatant was centrifuged 30 minutes, at 30,000×g, 4° C., and the resulting pellet resuspended in 50 mM tris. Membrane preparations were stored in aliquots at -70° C. until used. Binding of I^125 -angiotensin II to adrenal membranes was performed at room temperature for 90 minutes in 96-well plates containing a hydrophilic polyvinylidene fluoride membrane (0.45 μm, Millipore-GV multiscreen). Each 250 μincubate contained the following (final concentration): tris, 50 mM; NaCl, 120 mM; MgCl2, 5 mM; dithiothrietol 1 mM; bovine serum albumin, 0.05%; I^125 -angiotensin II, 0.1 nM; and adrenal membrane protein, 8-15 μg. Antagonists were added in concentrations from 10 nM to 100 μM. Non-specific binding was measured in the presence of 0.1 μM Sar1, Ile8 angiotensin II.
Binding was terminated by vacuum filtration. Receptor-ligand complex trapped on filters was washed 3 times with 300 μl ice-cold wash solution (tris, 50 mM; NaCl, 120 mM; MgCl2, 5 mM; dithiothrietol, 1 mM). Filter discs were dried, punched out and counted in a gamma counter at 52% efficiency. Specific binding represented 96% of total binding (approximately 150 fmol angiotensin II/mg protein). The molar concentration (IC50) of the inhibitor that displaced 50% of the binding of I^125 angiotensin II for each compound was calculated using a 4 parameter logistics model (NonLin, SAS Institute). Data are expressed as KI calculated using the Cheng Prusoff equation. See Cheng et al. Biochem. Pharmacol. 22: 3099 (1973).

[2] = molecular target: T1, angiotensin-induced vasoconstriction (rabbit aorta) (Oryctolagus cuniculus, UniProt P34976); experiment: Rabbit Aorta Test System: antagonism of angiotensin II contraction of aortic rings; set-up: species or system New Zealand white rabbits; conditions: contraction to AII 10^-10 to 10^-7 M, 30 minutes incubation with compound; pA2 = -log KB
T1 construct: The thoracic aortas were removed and cleaned of excess fat and connective tissue; from tissue; host or cells: thoracic aorta rings of New Zealand white rabbits (animals from Hazelton)
T1 sequence (P34976 1-359): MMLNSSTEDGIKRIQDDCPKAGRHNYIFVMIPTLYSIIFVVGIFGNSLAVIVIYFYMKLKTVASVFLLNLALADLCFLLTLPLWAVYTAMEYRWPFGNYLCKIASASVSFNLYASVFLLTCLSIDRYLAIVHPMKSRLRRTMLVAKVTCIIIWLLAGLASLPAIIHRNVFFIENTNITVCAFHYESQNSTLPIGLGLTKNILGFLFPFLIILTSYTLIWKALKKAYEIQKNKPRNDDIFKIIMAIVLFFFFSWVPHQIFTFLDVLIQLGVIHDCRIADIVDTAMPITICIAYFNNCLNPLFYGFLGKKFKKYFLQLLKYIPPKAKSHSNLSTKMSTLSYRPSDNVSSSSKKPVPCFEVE
Procedure: as §1
New Zealand white rabbits (Hazelton, 2-3 kg) were sacrificed by cervical dislocation. The thoracic aortas were removed and cleaned of excess fat and connective tissue. Rings of tissue (3 mm wide) were mounted in 10 ml tissue baths between 2 L-shaped stainless steel hooks. The lower hook was attached to a stationary rod. The upper hook was attached to a force displacement transducer (Grass model FT.03). The bath chambers were maintained at 37° C., aerated with 95% 02 /5% C02, and contained physiological solution of the following composition (mM): NaCl, 117; glucose, 5.6; NaH2 PO4, 1.0; MgS04, 0.7; KCl, 5.2; CaCl2, 1.8; NaHCO3, 26; and phentolamine HCl, 0.003.
Rings were equilibrated for 1 hour with 2 g of tension. During the equilibration period, the tissues were washed by overflow every 15 minutes. Rings were then exposed to 10^-8 M angiotensin II (AII) and were allowed to contract until a steady state was reached. Tissues were then washed every 15 minutes for 1 hour. This was repeated every hour until the AII response stabilized. A cumulative concentration response curve to AII (10^-10 to 10^-7 M) was then obtained. At the conclusion of the concentration response curve, tissues were washed every 2 minutes until baseline tension was reached, then every 15 minutes for 30 minutes. Compounds were added in a volume of 10 μl DMSO and allowed to incubate for 30 minutes before repeating the concentration response curve to AII. Contractions to AII were expressed as a percent of the maximum contraction obtained in the control curve (the first AII concentration response curve). EC50 's (concentration that contracted the tissues to 1/2 the control maximum) for each curve were calculated using a 4 parameter logistics model (NonLin, SAS Institute). Potency data for each compound tested are expressed as the pA2 (defined as-log KB, where KB =[molar concentration of antagonist]/[(EC50 AII with antagonist/EC50 AII without antagonist)-1]).

SMILES | Ki [1] [µM] | Kb [2] [µM]
CCCCCCC(C(=O)NCC)n1cnc(NC(=O)c2ccccc2S(=O)(=O)O)c1 (stereo not drawn) [Example 1, N-Ethyl-2-[4-(2-sulfobenzoyl)amino-1H-imidazol-1-yl]octanoamide] | 10.3 | 2
CCCCCCC(C(=O)NCCC)n1cnc(NC(=O)c2ccccc2S(=O)(=O)O)c1 (stereo not drawn) [Example 2, N-Propyl-2-[4-(2-sulfobenzoyl)amino-1H-imidazol-1-yl]octanoamide] | 8.2 | 0.794
CCCCCCC(C(=O)NCC(F)(F)F)n1cnc(NC(=O)c2ccccc2S(=O)(=O)O)c1 (stereo not drawn) [Example 3, N-(2,2,2-Trifluoroethyl)-2-[4-(2-sulfobenzoyl)amino-1H-imidazol-1-yl]octanoamide] | 9.6 | 3.98
CCCCCCC(C(=O)NC(C)(C)CO)n1cnc(NC(=O)c2ccccc2S(=O)(=O)O)c1 (stereo not drawn) [Example 4, N-[2-(1-Hydroxy-2-methyl)propyl]-2-[4-(2-sulfobenzoyl)amino-1H-imidazol-1-yl]octanoamide] | 12.1 | 1
CCCCCCC(C(=O)N1CCNC1=O)n1cnc(NC(=O)c2ccccc2S(=O)(=O)O)c1 (stereo not drawn) [Example 5, 2-[[[1-[1-[(2-oxo-1-imidazolidinyl)carbonyl]heptyl]-1H-imidazol-4-yl]amino]carbonyl]benzenesulfonic acid] | 178 | 0.501
CCCCCCC(C(=O)Nc1ccccn1)n1cnc(NC(=O)c2ccccc2S(=O)(=O)O)c1 (stereo not drawn) [Example 7, N-(2-Pyridyl)-2-[4-(2-sulfobenzoyl)amino-1H-imidazol-1-yl]octanoamide] | 6.8 | 1.58
CCCCCCC(C(=O)Nc1ccccc1O)n1cnc(NC(=O)c2ccccc2S(=O)(=O)O)c1 (stereo not drawn) [Example 8, N-(2-Hydroxyphenyl)-2-[4-(2-sulfobenzoyl)amino-1H-imidazol-1-yl]octanoamide] | 13 | 1.58
CCCCCCC(C(=O)Nc1ccccc1C(=O)O)n1cnc(NC(=O)c2ccccc2S(=O)(=O)O)c1 (stereo not drawn) [Example 9, N-(2-Carboxyphenyl)-2-[4-(2-sulfobenzoyl)amino-1H-imidazol-1-yl]octanoamide] | 12.4 | 0.251
CCCCCCC(C(=O)O)n1cnc(NC(=O)c2cccc(O)c2S(=O)(=O)O)c1 (stereo not drawn) [Example 10, 2-[4-(3-Hydroxy-2-sulfobenzoyl)amino-1H-imidazol-1-yl]octanoic acid] | 2.93 | 0.0631
